Laboratory results taken from patent US11230543B2, “Biaryl monobactam compounds and methods of use thereof for the treatment of bacterial infections” (priority 2015, dated 2022).
Counter-ions that a name gives are not always drawn.

How the values were obtained:
[1] = tested on: Klebsiella pneumoniae expressing KPC-1 (CL6569); experiment: Antibiotic activity: growth inhibitory concentration (OD600), Klebsiella pneumoniae CL6569; type: cell-based; details: lowest concentration inhibiting 95% of bacterial growth; in the presence of β lactamase inhibitor Relebactam 4 μg/mL; 35±2° C. for 22 hours; tested range 100 μM to 0.098 μM
Outline: (§1)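 Growth inhibition by OD600 after 22 hours incubation at 35±2° C, reported as lowest concentration inhibiting 95% of growth (MITC95). Final compound range 100 μM to 0.098 μM, always combined with β-lactamase inhibitor relebactam (4 μg/mL final); inoculum ~2×10^5 CFU/mL in cation-adjusted Mueller-Hinton II broth.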

[2] = tested on: Pseudomonas aeruginosa expressing AmpC (CL5701); experiment: Antibiotic activity: growth inhibitory concentration (OD600), Pseudomonas aeruginosa CL5701; type: cell-based; details: lowest concentration inhibiting 95% of bacterial growth; in the presence of β lactamase inhibitor Relebactam 4 μg/mL; 35±2° C. for 22 hours; tested range 100 μM to 0.098 μM
Outline: as §1

Compound	KP_CL6569 MITC95 [1] [µM]	PA_CL5701 MITC95 [2] [µM]
C[n+]1c(N)c(-c2ccc(OC[C@H](O/N=C(\C(=O)N[C@@H]3C(=O)N(OS(=O)(=O)[O-])C3(C)C)c3nc(N)sc3Cl)C(=O)O)cc2F)cn1CCCN [Example 48, (S)-3-((Z)-2-(((S)-2-(4-(3-Amino-1-(3-aminopropyl)-2-methyl-1H-pyrazol-2-ium-4-yl)-3-fluorophenoxy)-1-carboxyethoxy)imino)-2-(2-amino-5-chlorothiazol-4-yl)acetamido)-2,2-dimethyl-4-oxoazetidin-1-yl sulfate]	0.7813	6.25
CC1(C)[C@H](NC(=O)/C(=N\O[C@@H](COc2ccc(-c3cc(CN)n(CCCN)n3)cc2)C(=O)O)c2csc(N)n2)C(=O)N1OS(=O)(=O)O [Example 126, (S)-3-(4-(5-(Aminomethyl)-1-(3-aminopropyl)-1H-pyrazol-3-yl)phenoxy)-2-((((Z)-1-(2-aminothiazol-4-yl)-2-(((S)-2,2-dimethyl-4-oxo-1-(sulfooxy)azetidin-3-yl)amino)-2-oxoethylidene)amino)oxy)propanoic acid]	0.39	3.125
CC1(C)[C@H](NC(=O)/C(=N\O[C@@H](COc2ccc(Nc3cc[n+](CCCN)cc3)nc2)C(=O)O)c2csc(N)n2)C(=O)N1OS(=O)(=O)O [Example 33, 1-(3-aminopropyl)-4-((5-((S)-2-((((Z)-1-(2-aminothiazol-4-yl)-2-(((S)-2,2-dimethyl-4-oxo-1-(sulfooxy)azetidin-3-yl)amino)-2-oxoethylidene)amino)oxy)-2-carboxyethoxy)pyridin-2-yl)amino)pyridin-1-ium 2,2,2-trifluoroacetate]	0.3906	6.25
C[n+]1cc(-c2ccc(OC[C@H](O/N=C(\C(=O)N[C@@H]3C(=O)N(OS(=O)(=O)[O-])C3(C)C)c3csc(N)n3)C(=O)O)cc2)ccc1CNC(CN)CN [Example 79, (S)-3-((Z)-2-(2-aminothiazol-4-yl)-2-(((S)-1-carboxy-2-(4-(6-(((1,3-diaminopropan-2-yl)amino)methyl)-1-methylpyridin-1-ium-3-yl)phenoxy)ethoxy)imino)acetamido)-2,2-dimethyl-4-oxoazetidin-1-yl sulfate]	0.3906	6.25
CC1(C)[C@H](NC(=O)/C(=N\O[C@@H](COc2cnc(-n3cc[n+](CCCN)c3)nc2)C(=O)O)c2csc(N)n2)C(=O)N1OS(=O)(=O)[O-] [Example 111, (S)-3-((Z)-2-(((S)-2-((2-(3-(3-aminopropyl)-1H-imidazol-3-ium-1-yl)pyrimidin-5-yl)oxy)-1-carboxyethoxy)imino)-2-(2-aminothiazol-4-yl)acetamido)-2,2-dimethyl-4-oxoazetidin-1-yl sulfate]	1.563	50
CC1(C)[C@H](NC(=O)/C(=N\O[C@@H](COc2ccc(-c3cnc(NCCN)[n+](CC4CNC4)c3)cc2)C(=O)O)c2csc(N)n2)C(=O)N1OS(=O)(=O)[O-] [Example 99, (S)-3-((Z)-2-(((S)-2-(4-(2-((2-aminoethyl)amino)-1-(azetidin-3-ylmethyl)pyrimidin-1-ium-5-yl)phenoxy)-1-carboxyethoxy)imino)-2-(2-aminothiazol-4-yl)acetamido)-2,2-dimethyl-4-oxoazetidin-1-yl sulfate]	0.1953	3.125
CC1(C)[C@H](NC(=O)/C(=N\O[C@@H](COc2ccc(-c3cn(CCCN)[n+](CCN)c3)cc2)C(=O)O)c2csc(N)n2)C(=O)N1OS(=O)(=O)[O-] [Example 100, (S)-3-((Z)-2-(((S)-2-(4-(2-(2-aminoethyl)-1-(3-aminopropyl)-1H-pyrazol-2-ium-4-yl)phenoxy)-1-carboxyethoxy)imino)-2-(2-aminothiazol-4-yl)acetamido)-2,2-dimethyl-4-oxoazetidin-1-yl sulfate]	0.39	3.125
CC1(C)[C@H](NC(=O)/C(=N\O[C@@H](COc2ccc(C3CN=C(NCCN)N3)cc2)C(=O)O)c2csc(N)n2)C(=O)N1OS(=O)(=O)O (stereo partly drawn) [Example 60, (2S)-3-(4-(2-((2-aminoethyl)amino)-4,5-dihydro-1H-imidazol-5-yl)phenoxy)-2-((((Z)-1-(2-aminothiazol-4-yl)-2-(((S)-2,2-dimethyl-4-oxo-1-(sulfooxy)azetidin-3-yl)amino)-2-oxoethylidene)amino)oxy)propanoic acid]	0.3906	3.125
C[n+]1cc(-c2ccc(OC[C@H](O/N=C(\C(=O)N[C@@H]3C(=O)N(OS(=O)(=O)[O-])C3(C)C)c3nsc(N)n3)C(=O)O)cc2)cn1CCCN [Example 12, (S)-3-((Z)-2-(5-Amino-1,2,4-thiadiazol-3-yl)-2-(((S)-2-(4-(1-(3-aminopropyl)-2-methyl-1H-pyrazol-2-ium-4-yl)phenoxy)-1-carboxyethoxy)imino)acetamido)-2,2-dimethyl-4-oxoazetidin-1-yl sulfate]	0.3906	3.125
CC1(C)[C@H](NC(=O)/C(=N\OCCOc2ccc(-n3cc[n+](CCCN)c3)nc2)c2csc(N)n2)C(=O)N1OS(=O)(=O)[O-] [Example 35, (S,Z)-3-(2-((2-((6-(3-(3-aminopropyl)-1H-imidazol-3-ium-1-yl)pyridin-3-yl)oxy)ethoxy)imino)-2-(2-aminothiazol-4-yl)acetamido)-2,2-dimethyl-4-oxoazetidin-1-yl sulfate 2,2,2-trifluoroacetate]	1.281	50
C[n+]1ccc(-c2ccc(OC[C@H](O/N=C(\C(=O)N[C@@H]3C(=O)N(OS(=O)(=O)[O-])C3(C)C)c3csc(N)n3)C(=O)O)cc2)cc1NCCCN [Example 63, (S)-3-((Z)-2-(((S)-2-(4-(2-((3-aminopropyl)amino)-1-methylpyridin-1-ium-4-yl)phenoxy)-1-carboxyethoxy)imino)-2-(2-aminothiazol-4-yl)acetamido)-2,2-dimethyl-4-oxoazetidin-1-yl sulfate]	0.3906	6.25
CC1(C)[C@H](NC(=O)/C(=N\O[C@@H](COc2ccc(-c3cnn(CCCN)c3)nc2)C(=O)O)c2csc(N)n2)C(=O)N1OS(=O)(=O)O.O=C(O)C(F)(F)F [Example 13, 3-(4-(5-((S)-2-((((Z)-1-(2-aminothiazol-4-yl)-2-(((S)-2,2-dimethyl-4-oxo-1-(sulfooxy)azetidin-3-yl)amino)-2-oxo-ethylidene)amino)oxy)-2-carboxyethoxy)pyridin-2-yl)-1H-pyrazol-1-yl)propan-1-aminium 2,2,2-trifluoroacetate]	0.7813	12.5
C[n+]1cc(-c2ccc(OC[C@H](O/N=C(\C(=O)N[C@@H]3C(=O)N(OS(=O)(=O)[O-])C3(C)C)c3csc(N)n3)C(=O)O)nn2)cn1CCCN [Example 106, (S)-3-((Z)-2-(((S)-2-((6-(1-(3-aminopropyl)-2-methyl-1H-pyrazol-2-ium-4-yl)pyridazin-3-yl)oxy)-1-carboxyethoxy)imino)-2-(2-aminothiazol-4-yl)acetamido)-2,2-dimethyl-4-oxoazetidin-1-yl sulfate]	50	100
CC1(C)[C@H](NC(=O)/C(=N\O[C@@H](COc2ccc(-c3ccc(NCCN)[n+](CC4CNC4)c3)cc2)C(=O)O)c2csc(N)n2)C(=O)N1OS(=O)(=O)[O-] [Example 98, (S)-3-((Z)-2-(((S)-2-(4-(6-((2-aminoethyl)amino)-1-(azetidin-3-ylmethyl)pyridin-1-ium-3-yl)phenoxy)-1-carboxyethoxy)imino)-2-(2-aminothiazol-4-yl)acetamido)-2,2-dimethyl-4-oxoazetidin-1-yl sulfate]	0.09766	1.563
Cc1c(-c2ccc(OC[C@H](O/N=C(\C(=O)N[C@@H]3C(=O)N(OS(=O)(=O)O)C3(C)C)c3csc(N)n3)C(=O)O)cc2)c(C)[n+](C)n1CCCN.O=C([O-])C(F)(F)F [Example 20, 1-(3-aminopropyl)-4-(4-((S)-2-((((Z)-1-(2-aminothiazol-4-yl)-2-(((S)-2,2-dimethyl-4-oxo-1-(sulfooxy)azetidin-3-yl)amino)-2-oxo-ethylidene)amino)oxy)-2-carboxyethoxy)phenyl)-2,3,5-trimethyl-1H-pyrazol-2-ium 2,2,2-trifluoroacetate]	0.3906	6.25
C[n+]1cc(-c2ccc(OC[C@H](O/N=C(\C(=O)N[C@@H]3C(=O)N(OS(=O)(=O)[O-])C3(C)C)c3nc(N)sc3Cl)C(=O)O)cc2)cn1CCCN [Example 11, (S)-3-((Z)-2-(2-Amino-5-chlorothiazol-4-yl)-2-(((S)-2-(4-(1-(3-aminopropyl)-2-methyl-1H-pyrazol-2-ium-4-yl)phenoxy)-1-carboxyethoxy)imino)acetamido)-2,2-dimethyl-4-oxoazetidin-1-yl sulfate]	0.7813	3.125
C[n+]1cc(-c2ccc(OC[C@H](O/N=C(\C(=O)N[C@@H]3C(=O)N(OS(=O)(=O)[O-])C3(C)C)c3csc(N)n3)C(=O)O)cc2)ccc1NCC1(O)CNC1 [Example 73, (S)-3-((Z)-2-(2-aminothiazol-4-yl)-2-(((S)-1-carboxy-2-(4-(6-(((3-hydroxyazetidin-3-yl)methyl)amino)-1-methylpyridin-1-ium-3-yl)phenoxy)ethoxy)imino)acetamido)-2,2-dimethyl-4-oxoazetidin-1-yl sulfate]	0.1953	3.125
